System: Huh7/Rep-Feo cells
Assay: Primary HTS cell viability counter-screen (CellTiterGlo)
Format: cell-based, human
Conditions: for C-CompZ, compositeZ score for cell viability assay: Table 2 antiviral hits of DOS set, approximately 10-50 μM, most at 33 μM, 48 hours
Experimental: Primary Screening-HTS. Information about the library of known bioactive compounds that was screened and the general automated HTS protocol is available at http://www.broad.harvard.edu/chembio/index.html (see FIG. 10 for list of primary HTS with known bioactives library). Based on the results of optimization experiments in the 384-well plate format, the general HTS protocol was adapted as follows. Unless otherwise indicated, cells were incubated at all times in a humidified environment with 5% CO2 at 37° C. The assay was initiated by plating 30 μL of medium containing 2000 cells/well into white 384-well opaque-bottom plates (Nunc, Rochester, N.Y.) using an automated plate filler (Bio-Tek uFiller; Winsooki, Vt.) and allowing the cells to adhere for 24 hours. One hundred nL of compound stock solutions in DMSO was transferred from stock plates into the 384-well assay plates using an automated pin-based compound transfer robot (CyBio CyBi-Well vario; Woburn, Mass.). The final compound concentration in each well was estimated to be approximately 10-50 μM, with most compounds at 33 μM. The wells contained 0.33% DMSO by volume. The cells were then incubated for another 48 hours. The luminescent signal from each plate was detected using an automated plate reader (Perkin-Elmer Envision 1; Wellesley, Mass.). This screen was performed in duplicate. For negative controls, entire DMSO-treated control plates were employed, in addition to DMSO-only control wells that were incorporated into each compound assay plate. The cells were assayed for luciferase activity using the Bright-Glo Luciferase assay system (Promega), following the manufacturer's instructions. As a counter-screen, cell viability was assessed using the CellTiterGlo Luminescent cell viability assay (Promega) following the manufacturer's instructions.
Computational Data Analysis-Primary Screening. For each replicate, a mock-treatment distribution based on the total population of mock (DMSO) controls in that replicate was built (FIG. 11). Each compound was independently assigned a sign (ie, “+” or “−”) Z-score. Z-scores are calculated by dividing each background-subtracted, compound-treated well by the global standard deviation. A global standard deviation of the background-subtracted, mock-treated wells is calculated over the entire experiment. This distribution was determined to be consistent with experimental noise observed under cell-based assay conditions. The resulting collection of continuousvalued Z-scores represents the primary data set to be used for further analysis. The composite Z-score was calculated as a vector projection of each Z-score in duplicate onto an imaginary line of perfect reproducibility. Reproducibility is the cosine of the angle between each Z-score and that imaginary line; it is dimensionless and ranges from −1 to +1. […] The primary data were analyzed using the commercial software packages Pipeline Pilot (SciTegic, San Diego, Calif.) and SpotFire (SpotFire, Inc., Somerville, Mass.). The means of the negative, DMSO-only controls were considered the zero point.
Primary Screening—HTS: Unless otherwise indicated, cells were incubated at all times in a humidified environment with 5% CO2 at 37° C. The assay was initiated by plating 30 μl of medium containing 2,000 cells/well into white 384-well opaque-bottom plates (Nunc; Rochester, N.Y.) using an automated plate filler (Bio-Tek μFiller; Winsooki, Vt.) and allowing the cells to adhere for 24 hours. 100 nl of compound stock solutions in DMSO were transferred from stock plates into the 384-well assay plates using an automated pin-based compound transfer robot (CyBio CyBi-Well vario; Woburn, Mass.). The final compound concentration in each well was estimated to be approximately 10-50 μM, with most compounds at 33 μM. The wells contained 0.33% DMSO by volume. The cells were then incubated for another 48 hours. […]

Row | Compound | C-CompZ, compositeZ score for cell viability assay | cytotoxicity in the primary screen (tested at 33 μM)
1 | Cc1cc(C)c(-c2cc([C@H](C)O/N=C3/[C@H]4CCn5c(=O)n(-c6ccccc6)c(=O)n5[C@H]4[C@H](O)[C@@H]4O[C@H]34)on2)c(C)c1 [BUCMLD-B10A11] | −1.7178 | 
2 | Cc1cc2c(nc1C)CCCN2CC(C)O/N=C1/[C@H]2CCn3c(=O)n(-c4ccccc4)c(=O)n3[C@H]2[C@H](O)[C@@H]2O[C@H]12 (stereo partly drawn) [BUCMLD-B10A5] | 0.3574 | 
3 | O=C1C2(CO)C=C(Br)C(CC2c2ccccc2)[C@@]12CO2 (stereo partly drawn) [SM_A6B5_2P100] | −0.2965 | 
4 | CC(=O)OC[C@H]1O[C@H](CCO/N=C2/[C@H]3CCn4c(=O)n(-c5ccccc5)c(=O)n4[C@H]3[C@H](O)[C@@H]3O[C@H]23)C=C[C@@H]1OC(C)=O [BUCMLD-B10A3] | −1.8907 | 
5 | O=C1C2C=C(I)C(CC2OCCCCO)[C@@]12CO2 (stereo partly drawn) [SM_A5B3_2P141] | 0.6345 | 
6 | COc1cc2c(cc1OC)-c1c/c(=N\c3c(C)cc(C)cc3C)n(C)c(=O)n1CC2 [trequinsin, reference compound] |  | cytotoxic

Reference: US20120094939A1, “ANTI-VIRAL COMPOUNDS, COMPOSITIONS AND METHODS” (priority 2007, published 2012)
